Experimental data taken from US20020182590A1, “Determining protein function in cell culture using RNA interference” (Vanderbilt University, priority 2001, published 2002).

System: outwardly rectifying whole-cell currents of C. elegans body wall muscles
Assay: Whole-cell patch clamp recordings from cultured myo-3::GFP-expressing body wall muscle cells
Format: cell-based
Details: 20 mM TEA, 3 mM 4-AP
Description: FIGS. 3A-3C—Whole-cell recordings from C. elegans body wall muscles. […] Holding potential =−80 mV. […] Values are means±S.E. (n=8). […] Steady-state currents in the presence and absence of the drugs were measured at +80 mV. Drug effects were reversible. Values are means±S.E. (n=3-5).
Electrophysiology. Cells are patch clamped using either the conventional whole-cell mode or perforated patch method. Initially, whole-cell measurements are performed using “physiological” pipette and bath solutions. The composition of C. elegans extracellular and intracellular fluids is currently unknown. Ascaris bath Ringer's (Richmond & Jorgenson, 1999) and conventional high K^+, low Na^+ and Cl^− pipette solutions are used. Standard voltage clamp protocols are used to assess the voltage-dependence of channels responsible for whole-cell currents.
For these experiments, the inventors mimicked the experimental protocol and bath and pipette solutions used recently for in vivo patch clamp studies of C. elegans body wall muscles (Richmond et al., 1999). When cultured body muscles were patch clamped with a pipette solution containing 120 mM KCl (Richmond et al., 1999), slowly inactivating, strongly outwardly rectifying currents were observed (FIG. 3). These currents were inhibited 40% by 20 mM TEA and 85% by 20 mM TEA plus 3 mM 4-aminopyridine (4-AP). […]

Structure (SMILES): CC[N+](CC)(CC)CC [TEA]
- reversibility of drug effects on currents: reversible
- inhibition of whole-cell currents (bath addition, steady-state currents at +80 mV, pipette 120 mM KCl): 40%
